pIC50: −log10 of the molar value.

In ChEMBL document CHEMBL1201861, “Genomics of Drug Sensitity in Cancer screening data, Wellcome Trust Sanger Institute” one finds IC50 data, which are given here for seven compounds.

One test relates to NCI-H2029. In words: cells. Format: functional, cell-based. Particulars: Homo sapiens.
Another test deals with ZR-75-30. Put plainly: cells. Format: functional, cell-based. Particulars: Homo sapiens.
In another test the test system is KNS-62. Put plainly: cells. Format: functional, cell-based. Conditions: Homo sapiens.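 Also: inhibition of cell growth, read out with a cell viability assay.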
A further test has as its system RH-18. Put plainly: cells. Format: functional, cell-based. Conditions: Homo sapiens, Rh18.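 Also: growth inhibition of human RH-18 cells, read out with a cell viability assay.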
The test system of the next test is SNU-423. In words: cells. Format: functional, cell-based, Homo sapiens. Particulars: Homo sapiens, SNU-423.
The next test relates to CHP-134. In words: SANGER: Inhibition of human CHP-134 cell growth in a cell viability assay. Format: functional, cell-based.
The next test has as its system NBsusSR. Put plainly: cells. Format: functional, cell-based. Conditions: Homo sapiens.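 Also: growth inhibition of the human cell line, read out with a cell viability assay.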
The next test deals with NCI-H1048. In words: cells. Format: functional, cell-based. Conditions: Homo sapiens.
The subject of a further test is BT-549. In words: cells. Format: functional, cell-based. Conditions: Homo sapiens.
A further test concerns ECC10. Put plainly: cells. Format: functional, cell-based. Conditions: Homo sapiens.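 Also: growth inhibition of ECC10 cells, read out by a cell viability assay.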
The next test concerns D-566MG. Put plainly: cells. Particulars: Homo sapiens. Format: functional, cell-based.

Description for BT-549: SANGER: Inhibition of human BT-549 cell growth in a cell viability assay.
Description for ECC10: SANGER: Inhibition of human ECC10 cell growth in a cell viability assay.
Description for KNS-62: SANGER: Inhibition of human KNS-62 cell growth in a cell viability assay.
Description for NBsusSR: SANGER: Inhibition of human NBsusSR cell growth in a cell viability assay.
Description for NCI-H1048: SANGER: Inhibition of human NCI-H1048 cell growth in a cell viability assay.
Description for NCI-H2029: SANGER: Inhibition of human NCI-H2029 cell growth in a cell viability assay.
Description for RH-18: SANGER: Inhibition of human RH-18 cell growth in a cell viability assay.
Description for SNU-423: SANGER: Inhibition of human SNU-423 cell growth in a cell viability assay.
Description for ZR-75-30: SANGER: Inhibition of human ZR-75-30 cell growth in a cell viability assay.

In the case of `CCOc1nc(NC(=O)Cc2cc(OC)ccc2OC)cc(N)c1C#N`, the pIC50 in the test on NCI-H2029, in the test with ZR-75-30, in the test with KNS-62, in the test with RH-18, in the test with SNU-423 and in the test with CHP-134 was less than 5.00 in each case. The negative logarithm of the IC50 (pIC50) in the test with NBsusSR, in the test on NCI-H1048, in the test on BT-549, in the test on ECC10 and in the test with D-566MG was less than 5.00 each time.
For the compound `CC(=O)O[C@@H]1[C@@H](OC(C)=O)[C@@H](O)[C@H](Oc2c(-c3ccc(O)cc3)oc3cc(O)cc(O)c3c2=O)O[C@H]1C`, the pIC50 in the test on NCI-H2029, with ZR-75-30, with KNS-62, with RH-18, in the test with CHP-134 and with NBsusSR was less than 5.00 in each case. Further, the pIC50 in the test with NCI-H1048, with BT-549, in the test with ECC10 and in the test on D-566MG was less than 5.00 in each case.
Take `COc1cc(F)c(F)c(Nc2ccc(I)cc2F)c1NS(=O)(=O)C1(CC(O)CO)CC1` (stereo unspecified): the negative-log IC50 (pIC50) in the test with NCI-H2029 was less than 5.30; with ZR-75-30 it was less than 5.30; in the test on KNS-62 it was 5.73; with RH-18, less than 5.30; in the test with SNU-423 it was 5.31; in the test on CHP-134, less than 5.30. Also, the negative logarithm of the IC50 (pIC50) in the test on NBsusSR was less than 5.30; in the test on NCI-H1048, less than 5.30; in the test on BT-549, less than 5.30; in the test with ECC10 it was 5.86; in the test on D-566MG it was 5.37.
Consider `O=C1N=C(NCc2cccs2)S/C1=C\c1ccc2ncccc2c1`, for which the pIC50 with NCI-H2029, in the test with ZR-75-30, in the test with KNS-62, with RH-18, in the test on SNU-423 and in the test with CHP-134 was less than 5.30 each time. Further, the negative logarithm of the IC50 (pIC50) in the test on NBsusSR, in the test on NCI-H1048, in the test with BT-549, in the test with ECC10 and with D-566MG was less than 5.30 in each case.
`COc1ccc(-c2ccc3c(N4CCOC[C@@H]4C)nc(N4CCOC[C@@H]4C)nc3n2)cc1CO` [AZD-8055]: the negative logarithm of the IC50 (pIC50) was less than 5.70 with NCI-H2029; less than 5.70 in the test on ZR-75-30; 6.30 with KNS-62; less than 5.70 in the test on RH-18; 6.09 in the test on SNU-423; 5.86 with CHP-134. Further, the pIC50 was 6.77 in the test with NBsusSR; 6.23 with NCI-H1048; less than 5.70 in the test on BT-549; 6.46 in the test on ECC10; 5.97 in the test with D-566MG.
As for `COc1ccc(C2=N[C@@H](c3ccc(Cl)cc3)[C@@H](c3ccc(Cl)cc3)N2C(=O)N2CCNC(=O)C2)c(OC(C)C)c1` [NUTLIN-3], the negative-log IC50 (pIC50) in the test on NCI-H2029 was less than 5.10; in the test with ZR-75-30 it was less than 5.10; in the test with KNS-62 it was less than 5.10; in the test with RH-18, 5.37; in the test on SNU-423, less than 5.10; in the test with CHP-134, 5.53. In addition, the pIC50 in the test with NBsusSR, in the test with NCI-H1048, with BT-549, with ECC10 and in the test with D-566MG was less than 5.10 each time.
Take `C=CCNC1=C2C[C@@H](C)C[C@H](OC)[C@H](O)[C@@H](C)/C=C(\C)[C@H](OC(N)=O)[C@@H](OC)/C=C\C=C(/C)C(=O)NC(=CC1=O)C2=O` [TANESPIMYCIN]: the pIC50 was less than 6.00 in the test with NCI-H2029; less than 6.00 in the test on ZR-75-30; 6.49 in the test with KNS-62; less than 6.00 in the test with RH-18; less than 6.00 in the test on SNU-423; less than 6.00 with CHP-134. The pIC50 in the test with NBsusSR was 6.43; in the test on NCI-H1048, 6.54; in the test with BT-549, 6.93; with ECC10, less than 6.00; with D-566MG it was 8.41.

Usually pIC50 stands for the negative decadic logarithm of the IC50, by convention in mol/L. Read a high pIC50 as a low IC50.
